Reference: ChEMBL document CHEMBL3085759, “Structure-activity relationship (SAR) and preliminary mode of action studies of 3-substituted benzylthioquinolinium iodide as anti-opportunistic infection agents” (Eur J Med Chem, 2013)

How the values were obtained:
[1] = system: Mycobacterium intracellulare; assay: Antimicrobial activity against Mycobacterium intracellulare ATCC 23068 by Alamar blue method; type: functional, organism-based
[2] = system: Staphylococcus aureus; assay: Antimicrobial activity against methicillin-resistant Staphylococcus aureus ATCC 33591 by Alamar blue method; type: functional, organism-based
[3] = system: Staphylococcus aureus; assay: Antimicrobial activity against Staphylococcus aureus ATCC 29213 by Alamar blue method; type: functional, organism-based; conditions: Staphylococcus aureus, ATCC 29213; for IC50: read-out: IC50
[4] = system: Nakaseomyces glabratus; assay: Antimicrobial activity against Candida glabrata by Alamar blue method; type: functional, organism-based
[5] = system: Pichia kudriavzevii; assay: Antimicrobial activity against Candida krusei ATCC 6258 by Alamar blue method; type: functional, organism-based
[6] = Cytotoxicity against african green monkey Vero cells after 48 hrs by Neutral Red dye assay; type: cell-based; conditions: chlorocebus sabaeus, read-out: TC50
[7] = system: Aspergillus fumigatus; assay: Antimicrobial activity against Aspergillus fumigatus ATCC 204305 by Alamar blue method; type: functional, organism-based
[8] = system: Cryptococcus neoformans; assay: Antimicrobial activity against Cryptococcus neoformans ATCC 90113 by Alamar blue method; type: functional, organism-based
[9] = system: Candida albicans; assay: Antimicrobial activity against Candida albicans ATCC 90028 by Alamar blue method; type: functional, organism-based
[10] = system: Vero; assay: Cytotoxicity against african green monkey Vero cells at 10 ug/ml after 48 hrs by Neutral Red dye assay; type: cell-based; conditions: chlorocebus sabaeus

SMILES	IC50 [1] [µg/mL]	MBC [1] [µg/mL]	MIC [1] [µg/mL]	IC50 [2] [µg/mL]	MBC [2] [µg/mL]	MIC [2] [µg/mL]	MBC [3] [µg/mL]	MIC [3] [µg/mL]	IC50 [3] [µg/mL]	IC50 [4] [µg/mL]	MIC [4] [µg/mL]	IC50 [5] [µg/mL]	MIC [5] [µg/mL]	IC50 [7] [µg/mL]	MFC [7] [µg/mL]	MIC [7] [µg/mL]	MFC [8] [µg/mL]	MIC [8] [µg/mL]	IC50 [9] [µg/mL]	MFC [9] [µg/mL]	also measured
FC(F)(F)c1ccc(CSc2cc3ccccc3[n+](CCCCCC3CCCCC3)c2)cc1.[I-]	4.7	10	10	0.36	1.3	0.63	1.3	0.63	0.28	2.7	5	0.46	1.3	2.9	5	5	0.31	0.31	1.4	2.5	MFC [4]: 5 µg/mL; MFC [5]: 1.3 µg/mL; CC50 at 48 h [6]: 7.9 µg/mL; MIC [9]: 2.5 µg/mL
Clc1ccc(CSc2cc3ccccc3[n+](CCCCCC3CCCCC3)c2)cc1Cl.[I-]	4.5	10	5	0.18	1.3	1.3	2.5	2.5	0.5	3	5	0.3	1.3	2.8	5	5	0.63	0.63	1.1	2.5	MFC [4]: 5 µg/mL; MFC [5]: 1.3 µg/mL; Activity [10]: Non-toxic; IC50 [8]: 0.45 µg/mL; MIC [9]: 2.5 µg/mL
N#Cc1ccc(CSc2cc3ccccc3[n+](CCCCCC3CCCCC3)c2)cc1.[I-]	> 20	> 20	> 20	2.2	5	5	5	5	1.8	11	20	5.7	10	8.6	20	20	2.5	2.5	2.5	10	MFC [4]: 20 µg/mL; MFC [5]: 10 µg/mL; Activity [10]: Non-toxic; IC50 [8]: 0.81 µg/mL; MIC [9]: 5 µg/mL
COc1ccc(CSc2cc3ccccc3[n+](CCCCCC3CCCCC3)c2)cc1.[I-]	1.7	2.5	2.5	0.36	2.5	0.63	2.5	0.31	0.18	3	10	0.37	0.63	5.4	10	10	0.63	0.31	1.2	5	MFC [4]: 10 µg/mL; MFC [5]: 1.3 µg/mL; Activity [10]: Non-toxic; IC50 [8]: 0.18 µg/mL; MIC [9]: 5 µg/mL
N#Cc1cccc(CSc2cc3ccccc3[n+](CCCCCC3CCCCC3)c2)c1.[I-]	4.8	10	5	0.72	5	1.3	2.5	1.3	0.69	4.7	10	1.1	2.5	8.6	20	20	5	2.5	4.3	20	MFC [4]: 10 µg/mL; MFC [5]: 2.5 µg/mL; Activity [10]: Non-toxic; IC50 [8]: 1.1 µg/mL; MIC [9]: 10 µg/mL
[I-].c1ccc(CSc2cc3ccccc3[n+](CCCCCC3CCCCC3)c2)cc1	4	20	5	0.33	1.3	0.63	10	0.31	0.23	2.9	5	0.71	1.3	5.7	20	10	0.63	0.31	1.6	5	MFC [4]: 5 µg/mL; MFC [5]: 1.3 µg/mL; Activity [10]: Non-toxic; MIC [9]: 5 µg/mL
FC(F)(F)c1cccc(CSc2cc3ccccc3[n+](CCCCCC3CCCCC3)c2)c1.[I-]	7.2	10	10	0.56	2.5	1.3	2.5	0.63	0.4	2.8	5	1.4	2.5	1.9	2.5	2.5	0.63	0.63	1.2	2.5	MFC [4]: 5 µg/mL; MFC [5]: 2.5 µg/mL; Activity [10]: Non-toxic; IC50 [8]: 0.28 µg/mL; MIC [9]: 2.5 µg/mL
Fc1ccc(CSc2cc3ccccc3[n+](CCCCCC3CCCCC3)c2)cc1.[I-]	6.9	10	10	0.34	2.5	0.63	2.5	0.63	0.34	1.3	2.5	0.14	0.63	5.2	10	10	0.63	0.63	1.9	5	MFC [4]: 2.5 µg/mL; MFC [5]: 0.63 µg/mL; Activity [10]: Non-toxic; MIC [9]: 5 µg/mL
Cc1cc(C)c(CSc2cc3ccccc3[n+](CCCCCC3CCCCC3)c2)c(C)c1.[I-]	2.9	5	5	0.23	0.63	0.63	1.3	0.63	0.34	1.7	5	0.44	0.63	2.3	5	5	0.63	0.63	> 20	> 20	MFC [4]: 5 µg/mL; MFC [5]: 0.63 µg/mL; Activity [10]: Non-toxic; IC50 [8]: 0.32 µg/mL; MIC [9]: > 20 µg/mL
Brc1ccccc1CSc1cc2ccccc2[n+](CCCCCC2CCCCC2)c1.[I-]	3.5	5	5	0.41	1.3	0.63	1.3	0.63	0.42	3.4	10	0.49	1.3	9.6	20	20	2.5	1.3	4	10	MFC [4]: 10 µg/mL; MFC [5]: 1.3 µg/mL; Activity [10]: Non-toxic; MIC [9]: 10 µg/mL
Brc1ccc(CSc2cc3ccccc3[n+](CCCCCC3CCCCC3)c2)cc1.[I-]	6.1	10	10	0.4	1.3	0.63	1.3	0.63	0.4	1.6	5	0.49	0.63	2.4	5	5	0.63	0.63	0.5	2.5	MFC [4]: 5 µg/mL; MFC [5]: 0.63 µg/mL; Activity [10]: Non-toxic; IC50 [8]: 0.22 µg/mL; MIC [9]: 1.3 µg/mL
CC(C)(C)c1ccc(CSc2cc3ccccc3[n+](CCCCCC3CCCCC3)c2)cc1.[I-]	> 20	> 20	> 20	12	> 20	20	> 20	> 20	> 20	> 20	> 20	1.2	20	> 20	> 20	> 20	10	1.3	20	> 20	MFC [4]: > 20 µg/mL; MFC [5]: 20 µg/mL; Activity [10]: Non-toxic; MIC [9]: > 20 µg/mL
Fc1cccc(CSc2cc3ccccc3[n+](CCCCCC3CCCCC3)c2)c1.[I-]	6.5	10	10	0.37	1.3	0.63	1.3	0.63	0.44	2.6	5	0.49	1.3	5.6	20	10	0.63	0.63	1.8	5	MFC [4]: 5 µg/mL; MFC [5]: 1.3 µg/mL; Activity [10]: Non-toxic; MIC [9]: 5 µg/mL
FC(F)(F)c1ccccc1CSc1cc2ccccc2[n+](CCCCCC2CCCCC2)c1.[I-]	3.4	5	5	0.22	1.3	0.63	1.3	0.31	0.19	2.7	5	0.43	1.3	3.7	10	5	1.3	0.63	0.97	5	Activity [10]: Non-toxic; IC50 [8]: 0.42 µg/mL; MIC [9]: 2.5 µg/mL
